From patent US9865819B2, “Nitrogen annulated perylene diimides for use as electron transport materials in organic electronic devices” (UTI Limited Partnership, priority 2016, dated 2018)
Converted amounts (≈) assume the structure as drawn.

Tests used:
[1] = Solubility in CHCl3 by UV-vis absorbance calibration curve; assay type: physicochemical; conditions: room temperature, 50 mg/mL samples stirred overnight, 0.45 μm filtered, diluted 2000x, Beer-Lambert; for solubility: CHCl3, organic solvent or mixture, thermodynamic from solid
Procedure: FIG. 2 is a concentration vs absorption plot for determining the solubility of compounds (5) and (7) in CHCl3. A calibration curve was made for each compound by plotting absorbance values of known concentrations. (Dotted lines). In order to determine solubility, compounds (5) and (7) were made into solutions having 50 mg/mL concentration, allowed to stir overnight and then passed through a 0.45 μm syringe filter to remove any undissolved solids. The obtained solutions were then diluted by a factor of 2000 so that their absorbance was in the range of values used for the calibration curves. By using the Beer-Lambert law and the slope of the respective curves, it was determined that the solubility of both (5) and (7) was ˜50 mg/mL. This observation is confirmed by the apparent complete dissolution of 50 mg/mL samples of either (5) or (7) in CHCl3.
With the N annulated PDI derivatives (4), (5) and (7) in hand we set out to study their optical electronic and solubility characteristics. The N-annulated PDI materials bear an extra site for alkyl chain functionalization which was envisioned to modify the solubility and self-assembly characteristics of the materials with respect to the parent PDI compound (2). […] This assertion is supported by ^1H NMR evidence showing that the N—H proton becomes more deshielded upon increasing the solution concentration, typically observed for hydrogen bonding interactions (not shown). […] [54] Importantly, such high organic solvent solubility is achieved without the need for long branched alkyl chains attached to the imide N atoms, chains that are used for almost all reported multi-PDI based materials. Thus, one can envision a wide array of alkyl chains being installed to fine-tune molecular assembly in the solid state, following the so-called “side chain engineering” methodology.

[2] = Thermal stability by TGA analysis; assay type: physicochemical
Procedure: The melting points of compounds (4), (5), and (7) were also determined and provide support for the assertion that compound (4) experiences intermolecular hydrogen bonding interactions. […] Dimerization improves thermal stability.

| Structure (SMILES) | melting point [°C] | solubility [1] [mg/mL] | solubility in CHCl3 [1] [mg/mL] | thermally stable up to / decomposition temperature (TGA) [2] [°C] |
| --- | --- | --- | --- | --- |
| CCC(CC)n1c(=O)c2ccc3c4ccc5c(=O)n(C(CC)CC)c(=O)c6cc7[nH]c8cc(c1=O)c2c3c8c7c4c56 [Compound 4, EP-NH-CAG-PDI] | 235 | < 1 |  |  |
| CCCCCCn1c2cc3c(=O)n(C(CC)CC)c(=O)c4ccc5c6ccc7c(=O)n(C(CC)CC)c(=O)c8cc1c(c6c78)c2c5c43 [Compound 5, EP-N-Hex-CAG-PDI] |  | > 50 | ~50 (≈ 79.6 mM) |  |
| CCCCCCn1c2cc3c(=O)n(C(CC)CC)c(=O)c4ccc5c6c(-c7cc8c(=O)n(C(CC)CC)c(=O)c9cc%10c%11c(c7c7ccc%12c(=O)n(C(CC)CC)c(=O)c%13cc(c%11c7c%12%13)n%10CCCCCC)c89)cc7c(=O)n(C(CC)CC)c(=O)c8cc1c(c6c78)c2c5c43 [Compound 7, BAY-EP-N-Hex-CAG-PDI] |  | > 50 | ~50 (≈ 39.9 mM) | ~425 |
